Here are results for one sequence from patent US9079973B2, “Natriuretic polypeptides for reducing restenosis” (Mayo Foundation for Medical Education and Research, priority 2008, dated 2015).

The conditions of data set [1]: cited from earlier work.
In data set [2] the test system is human aortic vascular smooth muscle cells (HAoSMC). Put plainly: HAoSMC proliferation (BrdU uptake). The format is cell-based. The conditions noted are these: serum-supplemented media (5%), 24 hours.

Regarding GLSKGCFGLKLDRIGSMSGLGC [CNP], in data set [1], the “half-life after administration to a mammal” value was “about a minute and a half”. Besides, the reduced proliferation entry in data set [2] (10^−5 M NP) is “about 30%”; in data set [2] (10^−6 M NP) it was “about 20%”; in data set [2] (10^−7 M NP) it was “about 20%”.
